Measurements reported in US20240358693A1, “METHODS OF TREATING PAIN” (Aisa Pharma, Inc., priority 2023, published 2024).

System: participants with SSc-RP
Test: Average duration of weekly RP attacks (minutes)
Format: in vivo, human
Excerpt: The absolute change in average duration of weekly RP attacks from baseline to the end of each dosing period was and will be a secondary outcome variable. The sponsor-developed participant-informed diary was and will be used to record data. Average duration of weekly RP attacks is defined as the total duration of RP attacks divided by total number of RP attacks within the last 7 days of each dosing period. Total duration of RP attacks during the last 7 days of screening period divided by the total number of RP attacks will be used as baseline for the analysis of all periods. The variable will be calculated similar to frequency data as before.

[1] = Cilnidipine 10 mg, n=1, Excluding Outliers, ITT Part A
[2] = Cilnidipine 10 mg, n=1, ITT Part A
[3] = Cilnidipine 10 mg, Baseline RCS subgroup 1 (unnamed), ITT Part A
[4] = Cilnidipine 10 mg, Excluding Outliers, Baseline RCS subgroup 1 (unnamed), ITT Part A
[5] = Cilnidipine 10 mg, Excluding Outliers, ITT Population - Part A
[6] = Cilnidipine 10 mg, Excluding Outliers, by Baseline RCS, subgroup 1, ITT Population - Part A
[7] = Cilnidipine 10 mg, by Baseline RCS, subgroup 1, ITT Population - Part A
[8] = Cilnidipine 20 mg, n=2, Excluding Outliers, ITT Part A
[9] = Cilnidipine 20 mg, n=2, ITT Part A
[10] = Cilnidipine 20 mg, Baseline RCS subgroup 1 (unnamed), ITT Part A
[11] = Cilnidipine 20 mg, Excluding Outliers, Baseline RCS subgroup 1 (unnamed), ITT Part A

In the case of `COCCOC(=O)C1=C(C)NC(C)=C(C(=O)OC/C=C/c2ccccc2)C1c1cccc([N+](=O)[O-])c1` (stereo not shown) [Cilnidipine, cilnidipine], the “Average Duration of Weekly Symptomatic RP Attacks, Change from Baseline, Mean” value [1] is reported as -16.74 min, the “Average Duration of Weekly Symptomatic RP Attacks, Change from Baseline, Median” value [1] is reported as -16.74 min and the “Average Duration of Weekly Symptomatic RP Attacks, Mean” value [1] is reported as 31.64 min. For the same compound, the “Average Duration of Weekly Symptomatic RP Attacks, Median” value [1] was 31.64 min, the “Average Duration of Weekly Symptomatic RP Attacks, Percent Change from Baseline, Mean” value [1] was −34.60% and the “Average Duration of Weekly Symptomatic RP Attacks, Percent Change from Baseline, Median” value [1] was −34.60%. The “Average Duration of Weekly Symptomatic RP Attacks, Change from Baseline, Mean” value [2] was -16.74 min, the “Average Duration of Weekly Symptomatic RP Attacks, Change from Baseline, Median” value [2] was -16.74 min and the “Average Duration of Weekly Symptomatic RP Attacks, Mean” value [2] was 31.64 min. For the same compound, the “Average Duration of Weekly Symptomatic RP Attacks, Median” value [2] was 31.64 min, the “Average Duration of Weekly Symptomatic RP Attacks, Percent Change from Baseline, Mean” value [2] was −34.60% and the “Average Duration of Weekly Symptomatic RP Attacks, Percent Change from Baseline, Median” value [2] was −34.60%. The “Average Duration of Weekly Symptomatic RP Attacks, Change from Baseline, Mean” value [3] was -16.74 min, the “Average Duration of Weekly Symptomatic RP Attacks, Change from Baseline, Median” value [3] was -16.74 min and the “Average Duration of Weekly Symptomatic RP Attacks, Mean” value [3] was 31.64 min. For the same compound, the “Average Duration of Weekly Symptomatic RP Attacks, Median” value [3] was 31.64 min, the “Average Duration of Weekly Symptomatic RP Attacks, Percent Change from Baseline, Mean” value [3] was −34.60% and the “Average Duration of Weekly Symptomatic RP Attacks, Percent Change from Baseline, Median” value [3] was −34.60%. For the same compound, the “Average Duration of Weekly Symptomatic RP Attacks, Change from Baseline, Mean” value [4] was -16.74 min, the “Average Duration of Weekly Symptomatic RP Attacks, Change from Baseline, Median” value [4] was -16.74 min and the “Average Duration of Weekly Symptomatic RP Attacks, Mean” value [4] was 31.64 min. The “Average Duration of Weekly Symptomatic RP Attacks, Median” value [4] was 31.64 min, the “Average Duration of Weekly Symptomatic RP Attacks, Percent Change from Baseline, Mean” value [4] was −34.60% and the “Average Duration of Weekly Symptomatic RP Attacks, Percent Change from Baseline, Median” value [4] was −34.60%. The “Average Duration of Weekly RP Attacks (All Attacks) Change from Baseline, Mean” value [5] was -8.48 min, the “Average Duration of Weekly RP Attacks (All Attacks) Change from Baseline, Median” value [5] was -8.48 min and the “Average Duration of Weekly RP Attacks (All Attacks) Percent Change from Baseline, Mean” value [5] was −21.20%. For the same compound, the “Average Duration of Weekly RP Attacks (All Attacks) Percent Change from Baseline, Median” value [5] was −21.20%, the “Average Duration of Weekly RP Attacks (All Attacks), Mean” value (from here on “Average Duration … (All Attacks), Mean”) [5] was 31.52 min and the “Average Duration of Weekly RP Attacks (All Attacks), Median” value (“Average Duration … (All Attacks), Median” for short) [5] was 31.52 min. The “Average Duration of Weekly RP Attacks (All Attacks) Change from Baseline, Mean” value [6] was -8.48 min, the “Average Duration of Weekly RP Attacks (All Attacks) Change from Baseline, Median” value [6] was -8.48 min and the “Average Duration of Weekly RP Attacks (All Attacks) Percent Change from Baseline, Mean” value [6] was −21.20%. For the same compound, the “Average Duration of Weekly RP Attacks (All Attacks) Percent Change from Baseline, Median” value [6] was −21.20%, the “Average Duration … (All Attacks), Mean” value [6] was 31.52 min and the “Average Duration … (All Attacks), Median” value [6] was 31.52 min. For the same compound, the “Average Duration of Weekly RP Attacks (All Attacks) Change from Baseline, Mean” value (Cilnidipine 10 mg, ITT Part A) was -8.48 min, the “Average Duration of Weekly RP Attacks (All Attacks) Change from Baseline, Median” value (Cilnidipine 10 mg, ITT Part A) was -8.48 min and the “Average Duration of Weekly RP Attacks (All Attacks) Percent Change from Baseline, Mean” value (Cilnidipine 10 mg, ITT Part A) was −21.20%. The “Average Duration of Weekly RP Attacks (All Attacks) Percent Change from Baseline, Median” value (Cilnidipine 10 mg, ITT Part A) was −21.20%, the “Average Duration … (All Attacks), Mean” value (Cilnidipine 10 mg, ITT Part A) was 31.52 min and the “Average Duration … (All Attacks), Median” value (Cilnidipine 10 mg, ITT Part A) was 31.52 min. The “Average Duration of Weekly RP Attacks (All Attacks) Change from Baseline, Mean” value [7] was -8.48 min, the “Average Duration of Weekly RP Attacks (All Attacks) Change from Baseline, Median” value [7] was -8.48 min and the “Average Duration of Weekly RP Attacks (All Attacks) Percent Change from Baseline, Mean” value [7] was −21.20%. The “Average Duration of Weekly RP Attacks (All Attacks) Percent Change from Baseline, Median” value [7] was −21.20%, the “Average Duration … (All Attacks), Mean” value [7] was 31.52 min and the “Average Duration … (All Attacks), Median” value [7] was 31.52 min. For the same compound, the “Average Duration of Weekly Symptomatic RP Attacks, Change from Baseline, Mean” value [8] was -3.13 min, the “Average Duration of Weekly Symptomatic RP Attacks, Change from Baseline, Median” value [8] was -3.13 min and the “Average Duration of Weekly Symptomatic RP Attacks, Mean” value [8] was 16.73 min. The “Average Duration of Weekly Symptomatic RP Attacks, Median” value [8] was 16.73 min, the “Average Duration of Weekly Symptomatic RP Attacks, Percent Change from Baseline, Mean” value [8] was −31.05% and the “Average Duration of Weekly Symptomatic RP Attacks, Percent Change from Baseline, Median” value [8] was −31.05%. The “Average Duration of Weekly Symptomatic RP Attacks, Change from Baseline, Mean” value [9] was -3.13 min, the “Average Duration of Weekly Symptomatic RP Attacks, Change from Baseline, Median” value [9] was -3.13 min and the “Average Duration of Weekly Symptomatic RP Attacks, Mean” value [9] was 16.73 min. For the same compound, the “Average Duration of Weekly Symptomatic RP Attacks, Median” value [9] was 16.73 min, the “Average Duration of Weekly Symptomatic RP Attacks, Percent Change from Baseline, Mean” value [9] was −31.05% and the “Average Duration of Weekly Symptomatic RP Attacks, Percent Change from Baseline, Median” value [9] was −31.05%. For the same compound, the “Average Duration of Weekly Symptomatic RP Attacks, Change from Baseline, Mean” value [10] was -3.13 min, the “Average Duration of Weekly Symptomatic RP Attacks, Change from Baseline, Median” value [10] was -3.13 min and the “Average Duration of Weekly Symptomatic RP Attacks, Mean” value [10] was 16.73 min. For the same compound, the “Average Duration of Weekly Symptomatic RP Attacks, Median” value [10] was 16.73 min, the “Average Duration of Weekly Symptomatic RP Attacks, Percent Change from Baseline, Mean” value [10] was −31.05% and the “Average Duration of Weekly Symptomatic RP Attacks, Percent Change from Baseline, Median” value [10] was −31.05%. For the same compound, the “Average Duration of Weekly Symptomatic RP Attacks, Change from Baseline, Mean” value [11] was -3.13 min, the “Average Duration of Weekly Symptomatic RP Attacks, Change from Baseline, Median” value [11] was -3.13 min and the “Average Duration of Weekly Symptomatic RP Attacks, Mean” value [11] was 16.73 min. For the same compound, the “Average Duration of Weekly Symptomatic RP Attacks, Median” value [11] was 16.73 min, the “Average Duration of Weekly Symptomatic RP Attacks, Percent Change from Baseline, Mean” value [11] was −31.05% and the “Average Duration of Weekly Symptomatic RP Attacks, Percent Change from Baseline, Median” value [11] was −31.05%. The “Average Duration of Weekly RP Attacks (All Attacks) Change from Baseline, Mean” value (Cilnidipine 20 mg, Excluding Outliers, ITT Population - Part A) was -1.09 min.
